Laboratory results reported in ChEMBL document CHEMBL4002601, “A triple exon-skipping luciferase reporter assay identifies a new CLK inhibitor pharmacophore” (Bioorg Med Chem Lett, 2017).

Experiments:
[1] = target: Dual specificity protein kinase CLK1 (Homo sapiens, UniProt P49759); assay: Inhibition of CLK mediated SF3B1 activation in human SK-MEL-2 cells assessed as MDM2-pre mRNA exon skipping after 4 hrs by luciferase reporter gene assay relative to control; assay type: cell-based; settings: read-out: EC50
Sequence of Dual specificity protein kinase CLK1 (P49759 whole entry): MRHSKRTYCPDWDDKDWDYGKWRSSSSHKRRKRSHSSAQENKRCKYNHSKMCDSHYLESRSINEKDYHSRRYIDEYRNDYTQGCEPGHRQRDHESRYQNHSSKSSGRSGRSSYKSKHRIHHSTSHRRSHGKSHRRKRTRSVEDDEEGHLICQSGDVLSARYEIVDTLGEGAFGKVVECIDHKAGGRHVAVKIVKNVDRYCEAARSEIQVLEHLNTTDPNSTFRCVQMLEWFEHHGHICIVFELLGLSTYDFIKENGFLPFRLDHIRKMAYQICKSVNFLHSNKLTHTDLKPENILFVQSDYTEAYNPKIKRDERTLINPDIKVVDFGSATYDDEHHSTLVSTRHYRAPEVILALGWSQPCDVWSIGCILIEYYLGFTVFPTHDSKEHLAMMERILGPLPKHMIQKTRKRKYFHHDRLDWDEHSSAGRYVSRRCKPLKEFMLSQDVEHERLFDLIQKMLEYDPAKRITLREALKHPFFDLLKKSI

[2] = target: Cyclin-dependent kinase 1/cyclin B1 (Homo sapiens, UniProt P06493); assay: Inhibition of human CDK1/cyclinB using Histone H1 as substrate in presence of [gamma-33P]ATP after 40 mins by scintillation counter method; assay type: protein-complex assay
Sequence of Cyclin-dependent kinase 1/cyclin B1 (P06493 whole entry): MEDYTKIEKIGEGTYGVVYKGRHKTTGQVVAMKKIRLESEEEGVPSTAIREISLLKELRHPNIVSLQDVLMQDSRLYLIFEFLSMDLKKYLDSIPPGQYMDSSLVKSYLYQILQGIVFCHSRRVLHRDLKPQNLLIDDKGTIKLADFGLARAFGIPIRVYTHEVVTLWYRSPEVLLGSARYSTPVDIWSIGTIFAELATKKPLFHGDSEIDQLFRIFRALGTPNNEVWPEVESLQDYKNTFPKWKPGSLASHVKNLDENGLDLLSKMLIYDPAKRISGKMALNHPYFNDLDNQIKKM
Sequence of Cyclin-dependent kinase 1/cyclin B1 (P14635 whole entry, further chain): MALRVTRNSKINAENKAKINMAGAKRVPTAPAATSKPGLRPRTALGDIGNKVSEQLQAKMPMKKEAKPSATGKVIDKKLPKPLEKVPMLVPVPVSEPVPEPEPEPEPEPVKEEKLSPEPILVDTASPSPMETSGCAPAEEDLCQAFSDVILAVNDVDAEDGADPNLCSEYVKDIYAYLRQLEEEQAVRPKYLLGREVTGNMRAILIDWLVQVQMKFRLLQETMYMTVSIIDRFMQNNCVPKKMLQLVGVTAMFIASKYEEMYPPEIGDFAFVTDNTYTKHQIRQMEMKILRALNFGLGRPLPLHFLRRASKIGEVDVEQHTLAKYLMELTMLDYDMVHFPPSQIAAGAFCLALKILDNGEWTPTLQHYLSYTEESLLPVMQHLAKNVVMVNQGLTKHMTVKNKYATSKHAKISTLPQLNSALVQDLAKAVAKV

CDK6/cyclin D3 = CDK6/cyclin D3 (Homo sapiens, UniProt Q00534); assay: Inhibition of human CDK6/cyclinD3 using Histone H1 as substrate in presence of [gamma-33P]ATP after 40 mins by scintillation counter method; assay type: protein-complex assay
Sequence of CDK6/cyclin D3 (P30281 whole entry): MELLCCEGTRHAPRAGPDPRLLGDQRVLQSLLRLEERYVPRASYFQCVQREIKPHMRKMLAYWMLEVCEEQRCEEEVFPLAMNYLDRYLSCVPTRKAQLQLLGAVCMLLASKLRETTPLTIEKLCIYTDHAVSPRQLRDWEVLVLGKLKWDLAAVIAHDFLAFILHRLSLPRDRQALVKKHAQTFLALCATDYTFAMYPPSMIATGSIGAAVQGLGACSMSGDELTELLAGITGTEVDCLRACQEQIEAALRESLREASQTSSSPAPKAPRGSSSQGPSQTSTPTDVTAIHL
Sequence of CDK6/cyclin D3 (Q00534 whole entry): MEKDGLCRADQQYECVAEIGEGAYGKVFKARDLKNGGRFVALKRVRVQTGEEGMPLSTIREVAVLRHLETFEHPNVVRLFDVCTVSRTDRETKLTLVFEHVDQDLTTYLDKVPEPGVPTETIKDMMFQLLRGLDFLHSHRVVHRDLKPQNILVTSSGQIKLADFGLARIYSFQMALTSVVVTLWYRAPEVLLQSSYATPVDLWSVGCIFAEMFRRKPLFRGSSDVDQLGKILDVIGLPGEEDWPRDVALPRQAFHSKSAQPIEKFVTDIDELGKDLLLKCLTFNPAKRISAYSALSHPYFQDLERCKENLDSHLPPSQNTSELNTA

| SMILES | EC50 [1] [nM] | IC50 [2] [nM] | IC50 (CDK6/cyclin D3) [nM] |
| --- | --- | --- | --- |
| CC(C)n1cnc2c(Nc3cccc(Cl)c3)nc(N[C@@H]3CCCC[C@@H]3N)nc21 | 4300 | 674 | > 1000 |
| CC(C)n1cnc2c(Nc3cccc(Cl)c3)nc(N[C@H]3CCCC[C@@H]3N)nc21 | 11700 | > 1000 | > 1000 |
